This passage reports Binding % results from patent publication US10111874B2, “Combination therapies for treatment of cancer” (Araxes Pharma LLC, priority 2014, dated 2018).

The target in this test is T1, KRAS G12C 1-169, his-tagged protein, GDP-loaded (Homo sapiens, UniProt P01116, G12C).
T1 construct: KRAS G12C 1-169, his-tagged protein, GDP-loaded
T1 sequence (P01116 1-169 isoform P01116-2 G12C): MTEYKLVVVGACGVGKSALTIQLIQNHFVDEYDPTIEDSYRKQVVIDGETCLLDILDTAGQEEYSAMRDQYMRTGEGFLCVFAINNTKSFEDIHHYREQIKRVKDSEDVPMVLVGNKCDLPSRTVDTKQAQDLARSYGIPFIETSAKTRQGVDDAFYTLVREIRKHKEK
In words: Biochemical assay: covalent binding to KRAS G12C analyzed by mass spectrometry. Further: test concentration or dose not given here. The conditions noted are these: compounds 1-47, measured at 24 h.
As to `C=CC(=O)N1CCN(c2ncnc3cc(Cl)c(-c4ccc(O)cc4)cc23)CC1` [Compound I-12, 1-(4-(7-chloro-6-(4-hydroxyphenyl)quinazolin-4-yl)piperazin-1-yl)prop-2-en-1-one], the Binding % entry is on record as “+ (+indicates binding activity from 5% to 25%)”.

For the compound `C=CC(=O)N1CCN(c2ncnc3cc(Cl)c(-c4ccc(Cl)cc4OC)cc23)CC1` [Compound I-13, 1-(4-(7-chloro-6-(4-chloro-2-methoxyphenyl)quinoazlin-4-yl)piperazin-1-yl)prop-2-en-1-one], the Binding % entry is “++ (++indicates binding activity greater than 25% and up to 50%)”. The same measure for `C=CC(=O)N1CCN(c2ncnc3cc(Cl)c(-c4cccc(O)c4)cc23)CC1` [Compound I-14, 1-(4-(7-chloro-6-(3-hydroxyphenyl)quinazolin-4-yl)piperazin-1-yl)prop-2-en-1-one]: “++ (++indicates binding activity greater than 25% and up to 50%)”; for `C=CC(=O)N1CCN(c2ncnc3cc(Cl)c(-c4ccccc4O)cc23)CC1` [Compound I-15, 1-(4-(7-chloro-6-(2-hydroxyphenyl)quinoazlin-4-yl)piperazin-1-yl)prop-2-en-1-one]: “+++ (+++indicates binding activity greater than 50% and up to 75%)”; for `C=CC(=O)N1CCN(c2ncnc3cc(Cl)c(-c4ccc(C#N)cc4)cc23)CC1` [Compound I-16, 4-(4-(4-acryloylpiperazin-1-yl)-7-chloroquinazolin-6-yl)benzonitrile]: “++ (++indicates binding activity greater than 25% and up to 50%)”. Take `C=CC(=O)N1CCN(c2ncnc3cc(Cl)c(-c4ccncc4)cc23)CC1` [Compound I-17, 1-(4-(7-chloto-6-(pyridin-4-yl)quinazolin-4-yl)piperazin-1-yl)prop-2-en-1-one]: the Binding % result was “+ (+indicates binding activity from 5% to 25%)”.

Turning to `C=CC(=O)N1CCN(c2ncnc3cc(Cl)c(-c4ccccc4)cc23)CC1` [Compound I-18, 1-(4-(7-chloro-6-phenylquinazolin-4-yl)piperazin-1-yl)prop-2-en-1-one], the Binding % entry was “++ (++indicates binding activity greater than 25% and up to 50%)”. The same measure for `C=CC(=O)N1CCN(c2ncnc3cc(Cl)c(-c4cccc(C#N)c4)cc23)CC1` [Compound I-19, 3-(4-(4-acryloylpiperazin-1-yl)-7-chloroquinazolin-6-yl)benzonitrile]: “++ (++indicates binding activity greater than 25% and up to 50%)”.

`C=CC(=O)N1CCN(c2ncnc3cc(Cl)c(-c4cccnc4)cc23)CC1` [Compound I-20, 1-(4-(7-chloro-6-(pyridin-3-yl)quinazolin-4-yl)piperazin-1-yl)prop-2-en-1-one]: the Binding % result is on record as “+ (+indicates binding activity from 5% to 25%)”. On to `C=CC(=O)N1CCN(c2ncnc3cc(Cl)c(-c4cccs4)cc23)CC1` [Compound I-21, 1-(4-(7-chloro-6-(thiophen-2-yl)quinazolin-4-yl)piperazin-1-yl)prop-2-en-1-one], for which the Binding % entry was “+++ (+++indicates binding activity greater than 50% and up to 75%)”. In the case of `C=CC(=O)N1CCN(c2ncnc3cc(Cl)c(-c4cc(F)ccc4Cl)cc23)CC1` [Compound I-23, 1-(4-(7-chloro-6-(2-chloro-5-fluorophenyl)quinazolin-4-yl)piperazin-1-yl)prop-2-en-1-one] it was “++ (++indicates binding activity greater than 25% and up to 50%)”. Turning to `C=CC(=O)N1CCN(c2nccc3cc(Cl)c(-c4ccccc4Cl)cc23)CC1` [Compound I-24, 1-(4-(6-chloro-7-(2-chlorophenyl)isoquinolin-1-yl)piperazin-1-yl)prop-2-en-1-one], the Binding % result was “+ (+indicates binding activity from 5% to 25%)”.

Turning to `CN(C)C/C=C/C(=O)N1CCN(c2ncnc3cc(Cl)c(-c4ccccc4Cl)cc23)CC1` [Compound I-25, (E)-1-(4-(7-chloro-6-(2-chlorophenyl)quinazolin-4-yl)piperazin-1-yl)-4-(dimethylamino)but-2-en-1-one], the Binding % result was “++ (++indicates binding activity greater than 25% and up to 50%)”. The same measure for `C=CC(=O)N1CCN(c2ncnc3cc(Cl)c(-c4ccc(C)s4)cc23)CC1` [Compound I-26, 1-(4-(7-chloro-6-(5-methylthiophen-2-yl)quinazolin-4-yl)piperazin-1-yl)prop-2-en-1-one]: “++ (++indicates binding activity greater than 25% and up to 50%)”; for `C=CC(=O)N1CCN(c2ccnc3cc(Cl)c(-c4ccccc4Cl)cc23)CC1` [Compound I-27, 1-(4-(7-chloro-6-(2-chlorophenyl)quinolin-4-yl)piperazin-1-yl)prop-2-en-1-one]: “++ (++indicates binding activity greater than 25% and up to 50%)”. Consider `C=CC(=O)N1CCN(c2ncnc3[nH]cc(-c4ccccc4Cl)c23)CC1` [Compound I-28, 1-(4-(5-(2-chlorophenyl)-7H-pyrrolo[2,3-d]pyrimidin-4-yl)piperazin-1-yl)prop-2-en-1-one], for which the Binding % result is recorded as “+ (+indicates binding activity from 5% to 25%)”. `C=CC(=O)NC1CN(c2ncnc3cc(Cl)c(-c4ccccc4Cl)cc23)C1` [Compound I-29, N-(1-(7-chloro-6-(2-chlorophenyl)quinazolin-4-yl)azetidin-3-yl)acrylamide]: the Binding % result is given as “+ (+indicates binding activity from 5% to 25%)”.

As to `C=CC(=O)N1CC(Nc2ncnc3cc(Cl)c(-c4ccccc4Cl)cc23)C1` [Compound I-30, 1-(3-(7-chloro-6-(2-chlorophenyl)quinazolin-4-ylamino)azetidin-1-yl)prop-2-en-1-one], the Binding % entry is listed as “+ (+indicates binding activity from 5% to 25%)”.

Turning to `C=CC(=O)N1CCC(Nc2n[nH]c3cc(Cl)c(-c4ccccc4Cl)cc23)CC1` [Compound I-31, 1-(4-(6-chloro-5-(2-chlorophenyl)-1H-indazol-3-ylamino)piperidin-1-yl)prop-2-en-1-one], the Binding % entry is recorded as “+ (+indicates binding activity from 5% to 25%)”. The same measure for `C=CC(=O)N1CCN(c2ncnc3cc(Cl)c(N4CCOCC4)cc23)CC1` [Compound I-32, 1-(4-(7-chloro-6-morpholinoquinazolin-4-yl)piperazin-1-yl)prop-2-en-1-one]: “+ (+indicates binding activity from 5% to 25%)”.

Take `C=CC(=O)N1CCN(c2ncnc3cc(F)c(-c4ccccc4Cl)cc23)CC1` [Compound I-33, 1-(4-(6-(2-chlorophenyl)-7-fluoroquinazolin-4-yl)piperazin-1-yl)prop-2-en-1-one]: the Binding % entry is “++ (++indicates binding activity greater than 25% and up to 50%)”. In the case of `C=CC(=O)N1CCN(c2ncnc3cc(Cl)c(-c4ccc(Cl)s4)cc23)CC1` [Compound I-34, 1-(4-(7-chloro-6-(5-chlorothiophen-2-yl)quinazolin-4-yl)piperazin-1-yl)prop-2-en-1-one] it was “+++ (+++indicates binding activity greater than 50% and up to 75%)”; in that of `C=CC(=O)N1CCN(c2ncc3cccc(-c4ccccc4Cl)c3n2)CC1` [Compound I-35, 1-(4-(8-(2-chlorophenyl)quinazolin-2-yl)piperazin-1-yl)prop-2-en-1-one], “+ (+indicates binding activity from 5% to 25%)”. For the compound `C=CC(=O)N1CCC(c2ncnc3cc(Cl)c(-c4ccccc4Cl)cc23)CC1` [Compound I-36, 1-(4-(7-chloro-6-(2-chlorophenyl)quinazolin-4-yl)piperidin-1-yl)prop-2-en-1-one], the Binding % entry is given as “+ (+indicates binding activity from 5% to 25%)”. In the case of `C=CC(=O)N1CCN(c2nccc3cc(Cl)c(-c4ccc(Cl)cc4)cc23)CC1` [Compound I-37, 1-(4-(6-chloro-7-(4-chlorophenyl)isoquinolin-1-yl)piperazin-1-yl)prop-2-en-1-one] it was “++ (++indicates binding activity greater than 25% and up to 50%)”; in that of `C=CC(=O)N1CCN(c2ncnc3cc(C4CC4)c(-c4ccc(C5CC5)cc4)cc23)CC1` [Compound I-41, 1-(4-(7-cyclopropyl-6-(4-cyclopropylphenyl)quinazolin-4-yl)piperazin-1-yl)prop-2-en-1-one], “+ (+indicates binding activity from 5% to 25%)”. In the case of `C=CC(=O)N1CCN(c2c(C#N)cnc3cc(Cl)c(-c4ccc(Cl)cc4)cc23)CC1` [Compound I-42, 4-(4-acryloylpiperazin-1-yl)-7-chloro-6-(4-chlorophenyl)quinoline-3-carbonitrile] it was “+++ (+++indicates binding activity greater than 50% and up to 75%)”.

For `C=CC(=O)N1CCN(c2nc(OC)nc3cc(Cl)c(-c4ccc(Cl)cc4)cc23)CC1` [Compound I-43, 1-(4-(7-chloro-6-(4-chlorophenyl)-2-methoxyquinazolin-4-yl)piperazin-1-yl)prop-2-en-1-one], the Binding % result is “+++ (+++indicates binding activity greater than 50% and up to 75%)”. In the case of `C=CC(=O)N1CCN(c2ncnc3cc(Cl)c(-c4ccc(Cl)cc4)cc23)CC1C(N)=O` (centres unmarked) [Compound I-44, 1-acryloyl-4-(7-chloro-6-(4-chlorophenyl)quinazolin-4-yl)piperazin-2-carboxamide] it was “+++ (+++indicates binding activity greater than 50% and up to 75%)”; in that of `C=CS(=O)(=O)N1CCN(c2ncnc3cc(Cl)c(-c4ccc(Cl)cc4)cc23)CC1` [Compound I-45, 7-chloro-6-(4-chlorophenyl)-4-(4-(vinylsulfonyl)piperazin-1-yl)quinazoline], “+ (+indicates binding activity from 5% to 25%)”; in that of `C=CC(=O)N1CCN(c2ncnc3cc(Cl)c(-c4ccc(Cl)cc4)cc23)CC1CO` (centres unmarked) [Compound I-46, 1-(4-(7-chloro-6-(4-chlorophenyl)quinazolin-4-yl)-2-(hydroxymethyl)piperazin-1-yl)prop-2-en-1-one], “++++ (++++indicates binding activity greater than 75%)”. As for `C=CC(=O)N1CCN(c2ncnc3cc(Cl)c(-c4ccc(Cl)cc4)cc23)CC1C#N` (centres unmarked) [Compound I-47, 1-acryloyl-4-(7-chloro-6-(4-chlorophenyl)quinazolin-4-yl)piperazine-2-carbonitrile], the Binding % result is on record as “++++ (++++indicates binding activity greater than 75%)”.
